Measurements: patent USRE47740E1, “Aminopyridinecarboxamides as CXCR2 modulators” (Syntrix Biosystems Inc., priority 2010, dated 2019)
Read-outs that look alike come from different tables or passages of the source.

Molecular target: CXCR2 (Homo sapiens (Human), UniProt P25025)
Assay: Inhibition of CXCR2-mediated (GROα-induced) intracellular calcium release in human neutrophils (whole cell assay, Pharmacology Example 1)
Format: cell-based
Settings: GROα 25 nM
Procedure: Briefly, human neutrophils were suspended in HBSS^− (without Ca^2+ and Mg^2+) containing 10 mM HEPES and FLIPR Calcium 3 dye (3.1×10^7 cells in total volume 1.7 mL). Cells were aliquoted (200 μL of the cell suspension per tube, 8 tubes total) and 2 μL of compound 9 (with appropriate dilutions) were added to each of 6 tubes. The tested concentrations of compound 9 were 156 nM, 312 nM, 625 nM, 1250 nM, 2500 nM and 5000 nM. As controls, 2 μL of DMSO (1% final concentration) were added to 2 other tubes. Cells were incubated for 30 min at 37° C. After dye loading, tubes were centrifuged at 6,000 rpm for 1 min, supernatant was removed and the cell pellet was re-suspended in 200 μL of HBSS^+ (with Ca^2+ and Mg^2+) containing 10 mM HEPES. The test compound or DMSO (control) was added again at the same concentrations that were used during cell loading. The cell suspension was aliquoted into a 96-well Reading Plate (Corning) in a volume of 90 μL (10^5 cells/well). The Compound Plate contained agonist (GROα in HBSS^−) or HBSS^− (control). After 15 sec of reading the basal level of fluorescence by FlexStation II, 10 μL of GROα or HBSS^− were automatically transferred from the Compound Plate into the Reading Plate (final concentration of GROα was 25 nM). Changes in fluorescence were monitored (λex=485 nm, λem=525 nm) every 5 s for 240 to 500 s at room temperature.
The maximum change in fluorescence, expressed in arbitrary units over baseline (Max-Min), was used to determine the GROα response. The effect of each compound on the GROα response was normalized and expressed as a percent of the DMSO control, which was designated as “100% response.” Curve fitting and calculation of the compound inhibitory concentration that reduces the level of the GROα response by 50% (IC50), or the compound agonist concentration that increases the level of the calcium release by 50% of the maximum agonist-induced change (EC50) were determined by nonlinear regression analysis of the dose-response curves generated using Prism 4 (GraphPad Software, Inc., San Diego, Calif.).

[1] = FLIPR Calcium 3 dye, read-out: Inhibition of CXCR2 IC50
[2] = value in synthesis example, read-out: IC50 in whole cell assay (Pharmacology Example 1)

CXCR2, sequence (P25025 whole entry): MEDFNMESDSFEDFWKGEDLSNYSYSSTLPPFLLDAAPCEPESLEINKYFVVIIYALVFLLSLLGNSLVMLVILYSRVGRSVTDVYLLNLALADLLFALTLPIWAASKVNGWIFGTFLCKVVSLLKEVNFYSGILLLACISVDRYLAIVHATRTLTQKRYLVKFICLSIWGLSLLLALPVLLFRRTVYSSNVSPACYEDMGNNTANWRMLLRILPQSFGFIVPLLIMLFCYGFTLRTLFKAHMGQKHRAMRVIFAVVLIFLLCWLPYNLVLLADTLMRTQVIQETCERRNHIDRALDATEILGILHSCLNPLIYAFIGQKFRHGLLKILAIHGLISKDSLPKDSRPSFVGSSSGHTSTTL

IC50 [1] [nM]	IC50 (read-out: IC50, inhibition of CXCR2-mediated intracellular calcium release) [nM]	IC50 [2] [nM]	Compound
586 ± 910	586 ± 91	590 ± 90	CN(Cc1ccccc1O)c1ccc(C(=O)Nc2ccc(F)cc2)cn1 [Compound 9]
1000 ± 200	–	3700 ± 600	CN(Cc1ccccc1B(O)O)c1ccc(C(=O)Nc2ccc(F)cc2)cn1 [Compound 8]
247 ± 350	–	247 ± 35	CN(Cc1ccc(B(O)O)cc1)c1ccc(C(=O)Nc2ccc(F)cc2)cn1 [Compound 18]
1700 ± 200	–	1700 ± 200	O=C(Nc1ccc(F)cc1)c1ccc(NCc2ccccc2B(O)O)nc1 [Compound 10]
244 ± 150	–	244 ± 15	CN(Cc1ccc(B(O)O)cc1)c1ncc(C(=O)Nc2ccc(F)cc2)cn1 [Compound 19]
